Measurements published in patent US10736923B2, “Methods and compositions for generating chondrocyte lineage cells and/or cartilage like tissue” (UNIVERSITY HEALTH NETWORK, priority 2013, dated 2020).

Assays:
Type in all cases: cell-based, human
[1] = tested on: hPSC-derived paraxial mesoderm; experiment: Chondrocyte specification in micromass culture with TGFB3 or BMP4 (histology, scatter flow cytometry, qRT-PCR, immunostaining)
Source text: FIG. 4. TGFB3 and BMP4 specify chondrocytes and cartilage-like tissues with articular cartilage and growth plate cartilage phenotypes. (A) Micrographs of 5 week old micromasses derived with TGFB3 or BMP4, 20× magnification. (B) Tissue histology (stained with toluidine blue) of 13 week cartilage tissues derived with TGFB3 or BMP4. […] (C) Flow cytometric analysis of forward and side cell scatter parameters of 3 week and 5 week old micromasses. Side scatter indicates cell granularity and forward cell scatter indicates cell size. (D) Comparison of hPSC-derived micromass tissues to fetal primary chondrocyte derived micromass tissues and the developing human fetal femur cartilage. Articular cartilage regions appear to have smaller cells in size compared to growth plate like regions, which contain cells which appear enlarged (hypertrophic). Cartilage tissues in micromass as well as in the fetal femur stain uniformly with the toluidine blue stain (images are pink/purple in color and indicate the presence of cartilage proteins). The BMP4-treated micromass tissues contain a large number of enlarged cells which is similar to the bottom panel of the fetal cartilage which represents a growth plate cartilage. TGFB3 treated micromass cultures contain fewer, if any, enlarged chondrocytes, and appear similar to the upper panel of the fetal cartilage which is the site of articular cartilage. (E) Micrograph using GDF5 instead of BMP4 to generate hypertrophic chondrocytes. (F) Histological analyses of cartilage tissues derived from hiPSCs stained with Toluidine blue after 12 weeks. (G,H) Immunohistochemical staining of hESC-derived cartilage tissues for type II Collagen (G, 8 week tissues), and lubricin (H, 12 week tissues).
FIG. 5. Gene expression analyses of chondrocyte specification in the presence of TGFB3 or BMP4 during stages 3 and 4 of differentiation respectively. General chondrocyte genes Sox9 (A) and collagen 2 (B), hypertrophic genes collagen 10 (C), Runx2 (D), osterix (E) and alkaline phosphatase (F), articular cartilage associated genes lubricin (G) and cartilage intermediate layer protein 2 (CILP2) (H), interzone-related (joint progenitor) genes GDF5 (I), ERG (J) and Wnt9a (K). Expression is copy number relative to TBP (n=3 to 8 biological replicates) and is compared to primary fetal chondrocytes (aged 16 to 19 weeks, n=4), primary healthy adult articular chondrocytes (n=2), and growth plate-like chondrocytes isolated from the iliac crest of an adult (n=1). T15 Mesoderm indicates day 15 hESC-derived paraxial mesoderm (DM+FGF-treated). Error bars indicate s.e.m.
FIG. 8. TGFβ1, TGFβ2, and TGFβ3 generated articular chondrocytes from hPSC-derived paraxial mesoderm. COL2A1, lubricin, and CILP2 gene expression after 12 weeks of micromass culture in the presence of TGF agonists as indicated (10 ng/ml). Values represent copy number mRNA relative to TBP. Error bars indicate s.e.m.
Previous studies have shown that TGFBeta/BMP signaling is required to generate chondrocyte progenitors from paraxial mesoderm. […] Following 10 days of TGFb3 treatment (day 25 total), cultures could be switched to media containing BMP4 or maintained in TGFb3 (stage 4) in order to specify subsets of chondrocytes (articular/non-hypertrophic or growth plate/hypertrophic). To determine the chondrocyte potential of the day 15 mesoderm populations, the cells were plated at high cell density in a 20 microliter volume on tissue culture treated Petri dishes for an hour (micromass) and then the ‘spot’ was submerged/covered with media. In our initial studies, the cells were ‘spotted’ in a media containing 2% fetal bovine serum. However, this short serum exposure can be omitted with no effects on cartilage formation at later stages, making this protocol optionally serum-free. After 2 to 3 days, serum-free media containing TGFb3 is added to the culture to generate chondrocyte progenitors. […]

[2] = tested on: fetal chondrocytes; experiment: CD73 flow cytometry of fetal chondrocytes in micromass culture; conditions: 9 to 10 weeks of micromass culture
Source text: (§1) FIG. 6. CD73 is expressed by articular chondrocytes. Flow cytometric analyses of primary chondrocytes (A) Healthy adult articular chondrocytes and iliac crest GPC-like chondrocytes, (B) Primary fetal chondrocytes, primary (C) or passaged (passage (P)2, D) fetal chondrocytes after 9 to 10 weeks of micromass culture in the presence of TGFB3 or BMP4, and (E) hPSC-derived chondrocytes after 11 weeks derived in the presence of TGFB3 or BMP4. (F) Time course of CD73 and PDGFR-beta cells surface expression on T12 and T15 paraxial mesoderm populations, and micromass cultures treated with TGFB3 after 3 days, 10 days, and 2 weeks. (G) Time course of CD73 expression on TGFB3-treated micromasses after 3 days, 7 days, 10 days, and 2 to 5 weeks.
(§2) Primary (P0) and passaged (P2) fetal chondrocytes can also be cultured in micromass with TGFB3 or BMP4, similar to how hPSC-derived cartilage tissues are formed. TGFB3-treated fetal P0-derived or fetal P2-derived cartilage tissues contain over 93% CD73 positive cells, while BMP4 treatment reduces the percentage of CD73+ cells to 70% and 61% respectively (FIG. 6C,D). CD73 expression is also expressed by over 98% of hPSC-derived cartilage tissues derived with TGFB3-treatment (FIG. 6E). The percentage of CD73+ cells is reduced to only about 57% of cells after BMP4-treatment. Thus, CD73 marks primary healthy adult ACs, a proportion of healthy fetal chondrocytes, fetal chondrocytes or passaged fetal chondrocytes cultured as micromasses in TGFB3, and TGFB3-treated articular chondrocyte-like cells derived from human PSCs.

[3] = tested on: hPSC-derived chondrocytes; experiment: CD73 flow cytometry of hPSC-derived cartilage tissues; conditions: hPSC-derived cartilage tissues after 11 weeks
Source text: as §1
as §2, with “Thus, CD73 marks primary healthy adult ACs, a proportion of healthy fetal chondrocytes, fetal chondrocytes or passaged fetal chondrocytes cultured as micromasses in TGFB3, and TGFB3-treated articular chondrocyte-like cells derived from human PSCs.” left out

[4] = tested on: primitive streak-like mesoderm population; experiment: Paraxial mesoderm specification in monolayer culture, flow cytometry of cell surface markers
Description: FIG. 2. Characterization of paraxial mesoderm derived from hPSCs. Flow cytometric analysis of day 5 mesoderm treated with no additional factors (0 DM, no FGF), FGF, 4 μM DM, or 4 μM DM+FGF. Day 5 profiles depict KDR and PDGFRa expression, a double-positive population (gated) indicates mesoderm that has cardiac potential (20). Treatment with FGF results in less PDGFRa expression on day 5. (B) Expression of cell surface markers CD73, CD105, and PDGFR-beta on mesoderm populations on day 15 of differentiation. […] Experimental cell treatments during day 4 to day 6 include the combination of Dorsomorphin, bFGF, TGFbeta inhibitor (SB431542) in the presence or absence of the wnt pathway inhibitor IWP2. Flow cytometric analyses of CD73 and CD105, on day 15 mesoderm populations derived as indicated. (D) Gene expression analyses of day 15 mesoderm populations derived in indicated factors. Nkx2.5 is a cardiac transcription factor, Meox1 and Nkx3.2 are paraxial mesoderm and somite transcription factors. (E) Micrographs depicting 1 day old micromasses and 1 week old micromasses derived from day 15 mesoderm populations as indicated. (F) Flow cytometric analysis of cardiac troponin T (cTnT) expression in 1 week old micromasses derived from day 15 mesoderms as indicated. […] To generate chondrocytes, it is essential to first specify this PS population to a paraxial mesoderm fate. Previous studies have shown that mesoderm populations that express cell surface markers often found on mesenchymal stem cells, CD73 and CD105, have chondrogenic potential (Hwang, Kim et al. 2006). The expression of these two cell surface markers, as well as the expression of transcription factors Meox1 and Nkx3.2 combined with the lack of expression of Nkx2.5 to monitor the emergence of a paraxial mesoderm population was used. Previous experiments in the mouse ESC model system have shown the importance of inhibiting the BMP signaling pathway in the context of FGF signaling to prevent the emergence of cardiac mesoderm and promote the development of paraxial mesoderm (Craft, Ahmed et al. 2013). […] Very few cells in untreated mesoderm conditions expressed CD73 and CD105 (7.46%, FIG. 2B). […] The changes in expression of these surface markers were accompanied by the upregulation of paraxial genes Meox1 and Nkx3.2 (FIG. 2C). […] Thus, in some cell lines, the efficiency of paraxial mesoderm specification may be improved in the presence of a Wnt pathway antagonist immediately following the PS mesoderm induction phase.

[5] = tested on: day 15 mesoderm populations; experiment: Gene expression analyses of day 15 mesoderm populations
Description: FIG. 2. Characterization of paraxial mesoderm derived from hPSCs. Flow cytometric analysis of day 5 mesoderm treated with no additional factors (0 DM, no FGF), FGF, 4 μM DM, or 4 μM DM+FGF. Day 5 profiles depict KDR and PDGFRa expression, a double-positive population (gated) indicates mesoderm that has cardiac potential (20). Treatment with FGF results in less PDGFRa expression on day 5. (B) Expression of cell surface markers CD73, CD105, and PDGFR-beta on mesoderm populations on day 15 of differentiation. […] Experimental cell treatments during day 4 to day 6 include the combination of Dorsomorphin, bFGF, TGFbeta inhibitor (SB431542) in the presence or absence of the wnt pathway inhibitor IWP2. Flow cytometric analyses of CD73 and CD105, on day 15 mesoderm populations derived as indicated. (D) Gene expression analyses of day 15 mesoderm populations derived in indicated factors. Nkx2.5 is a cardiac transcription factor, Meox1 and Nkx3.2 are paraxial mesoderm and somite transcription factors. (E) Micrographs depicting 1 day old micromasses and 1 week old micromasses derived from day 15 mesoderm populations as indicated. (F) Flow cytometric analysis of cardiac troponin T (cTnT) expression in 1 week old micromasses derived from day 15 mesoderms as indicated. […] To generate chondrocytes, it is essential to first specify this PS population to a paraxial mesoderm fate. […]

[6] = tested on: day 15 mesoderm populations; experiment: Micromass assay of day 15 mesoderm populations
Description: FIG. 2. Characterization of paraxial mesoderm derived from hPSCs. Flow cytometric analysis of day 5 mesoderm treated with no additional factors (0 DM, no FGF), FGF, 4 μM DM, or 4 μM DM+FGF. Day 5 profiles depict KDR and PDGFRa expression, a double-positive population (gated) indicates mesoderm that has cardiac potential (20). Treatment with FGF results in less PDGFRa expression on day 5. (B) Expression of cell surface markers CD73, CD105, and PDGFR-beta on mesoderm populations on day 15 of differentiation. […] Experimental cell treatments during day 4 to day 6 include the combination of Dorsomorphin, bFGF, TGFbeta inhibitor (SB431542) in the presence or absence of the wnt pathway inhibitor IWP2. Flow cytometric analyses of CD73 and CD105, on day 15 mesoderm populations derived as indicated. (D) Gene expression analyses of day 15 mesoderm populations derived in indicated factors. Nkx2.5 is a cardiac transcription factor, Meox1 and Nkx3.2 are paraxial mesoderm and somite transcription factors. (E) Micrographs depicting 1 day old micromasses and 1 week old micromasses derived from day 15 mesoderm populations as indicated. (F) Flow cytometric analysis of cardiac troponin T (cTnT) expression in 1 week old micromasses derived from day 15 mesoderms as indicated. […] Previous studies have shown that TGFBeta/BMP signaling is required to generate chondrocyte progenitors from paraxial mesoderm. […] Following 10 days of TGFb3 treatment (day 25 total), cultures could be switched to media containing BMP4 or maintained in TGFb3 (stage 4) in order to specify subsets of chondrocytes (articular/non-hypertrophic or growth plate/hypertrophic). To determine the chondrocyte potential of the day 15 mesoderm populations, the cells were plated at high cell density in a 20 microliter volume on tissue culture treated Petri dishes for an hour (micromass) and then the ‘spot’ was submerged/covered with media. In our initial studies, the cells were ‘spotted’ in a media containing 2% fetal bovine serum. […]

[7] = 8- to 12-week old tissue, versus tissue maintained in TGFb3

Q: How did the “forward and side scatter of live cells (cell size, granularity)” value ([1]; 3 week and 5 week micromasses) turn out when BMP4: Bone Morphogenetic Protein 4 was run?
A: Its value is “larger forward scatter (FSC)”.

Q: And the chondrocyte morphology ([1]; 5 week old micromasses)?
A: The chondrocyte morphology was “round with cobblestone-like appearance”.

Q: What about the COL10A1 expression [1, 7] of the same substance?
A: Its COL10A1 expression is “significantly higher”.

Q: And the RUNX2 expression [1, 7]?
A: The RUNX2 expression was “significantly higher”.

Q: And the SP7 expression [1, 7]?
A: Its SP7 expression is “significantly higher”.

Q: And the “alkaline phosphatase (ALP/ALPL) expression” value [1, 7]?
A: Its value is “significantly higher”.

Q: And the “Lubricin protein (immunohistochemistry)” value ([1]; 12 week micromass tissue)?
A: The value was “not”.

Q: What about the “tissue histology (toluidine blue), chondrocyte size” value ([1]; 13 week old tissues, GDF5 instead of BMP4) of the same substance?
A: The value was “enlarged hypertrophic chondrocytes”.

Q: And the “cartilage tissue formation on direct plating of day 15 mesoderm” value ([1]; direct plating into BMP4 containing media, no TGFB3 stimulation)?
A: The value was “non-adherent cell aggregates that did not form cartilage tissue”.

Q: And the COL2A1 expression ([1]; qRT-PCR, by 2 weeks of culture)?
A: Its COL2A1 expression is “upregulated”.

Q: And the SOX9 expression ([1]; qRT-PCR, by 2 weeks of culture)?
A: Its SOX9 expression is “upregulated”.

Q: What about the CD73 positive cells ([2]; passaged (P2) fetal chondrocytes) of the same substance?
A: Its CD73 positive cells is 61%.

Q: And the CD73 positive cells ([2]; primary (P0) fetal chondrocytes)?
A: The CD73 positive cells was 70%.

Q: What about the CD73 positive cells [3] of the same substance?
A: Its CD73 positive cells is “about 57%”.

Q: “bFGF: basic fibroblast growth factor, FGF agonist” was tested. Which “expression patterns of PDGFRa and KDR” value ([4]; T5, versus untreated mesoderm, DM T4 to T6) did it give?
A: The value was “did not change the PDGFRa/KDR population drastically”.

Q: And the “proportion of cells expressing CD73 and CD105” value ([4]; day 15, FGF day 4 to day 15, DM T4-T6)?
A: The value was 52%.

Q: And the “PDGF receptor beta expression on CD73-positive cells” value ([4]; day 15 monolayers)?
A: Its value is “also expressed the PDGF receptor beta”.

Q: And the Meox1 expression [5]?
A: Its Meox1 expression is “upregulation”.

Q: What about the Nkx3.2 expression [5] of the same substance?
A: The Nkx3.2 expression was “upregulation”.

Q: And the “generation of cardiomyocytes (cTnT)” value ([6]; 1 week of micromass culture)?
A: Its value is “did not generate any cardiomyocytes”.

Q: And the cartilage-like tissue formation ([6]; after 4 weeks of micromass culture, treatment in monolayer phase)?
A: The cartilage-like tissue formation was “did not maintain a cartilage tissue phenotype”.

Q: What about the “adherence and survival in micromass culture” value ([6]; first week of micromass culture) of the same substance?
A: The value was “survived the first week of micromass culture as an adherent layer of cells”.
